Data on two compounds can be found in patent US12617770B2, “IRAK inhibitor and preparation method therefor and use thereof” (WUHAN CREATERNA SCIENCE AND TECHNOLOGY CO., LTD., priority 2019, dated 2026).

One may read the pIC50 as −log10 of the IC50, conventionally taken in molar units.

SMILES strings stand for the structures. pIC50: −log10 of the molar value.

Type in all cases: in vitro ADME
The target in series [1] is T1, CYP2D6 (Homo sapiens, UniProt P10635).
T1 construct: co-incubated at 7 concentrations with human liver microsomes and five probe substrates; tissue Corning (USA); host or cells: mixed (pooled) human liver microsomes
T1 sequence (P10635 whole entry): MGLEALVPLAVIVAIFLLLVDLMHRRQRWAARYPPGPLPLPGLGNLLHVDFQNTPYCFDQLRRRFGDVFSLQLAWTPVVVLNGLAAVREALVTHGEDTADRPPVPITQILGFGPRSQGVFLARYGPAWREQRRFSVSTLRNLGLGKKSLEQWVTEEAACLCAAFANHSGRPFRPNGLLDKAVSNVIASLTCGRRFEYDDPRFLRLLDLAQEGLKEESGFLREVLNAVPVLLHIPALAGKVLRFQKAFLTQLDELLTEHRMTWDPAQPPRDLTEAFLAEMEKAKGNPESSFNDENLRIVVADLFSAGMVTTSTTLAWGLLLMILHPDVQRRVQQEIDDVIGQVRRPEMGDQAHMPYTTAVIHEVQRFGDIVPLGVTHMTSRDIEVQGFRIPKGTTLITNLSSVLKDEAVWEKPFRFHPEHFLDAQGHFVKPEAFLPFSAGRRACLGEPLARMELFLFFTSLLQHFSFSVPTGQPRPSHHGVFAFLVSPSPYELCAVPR
Nature of the series: CYP450 inhibition in human liver microsomes, CYP2D6. Particulars: pooled (mixed) human liver microsomes, probe dextromethorphan; human liver microsomes, dextromethorphan; read-out: CYP2D6 IC50. Here is the method:
(§1) This study was intended to investigate the inhibitory effect of the test compounds on 5 major enzymes in human P450 superfamily, CYP1A2, 2C9, 2C19, 2D6 and 3A4-M. The mixed human liver microsomes used in this assay were purchased from Corning (USA). The test compound (compound 14) was co-incubated at 7 concentrations with human liver microsomes and five probe substrates (phenacetin for CYP1a2, diclofenac for CYP2C9, mephenytoin for CYP2C19, dextromethorphan for CYP2D6, midazolam for CYP3A4-M, mixed). The reaction was initiated by adding coenzyme NADPH, and terminated by adding acetonitrile containing internal standard. After the proteins were precipitated, the supernatant was centrifuged. The characteristic metabolites in the supernatant (acetaminophen for CYP1A2, 4-hydroxydiclofenac for CYP2C9, 4-hydroxymephenytoin for CYP2C19, dextrorphan for CYP2D6, 1-hydroxymidazolam for CYP3A4-M) were analyzed by LC-MS/MS. The influence of the test compounds on production of the characteristic metabolites was finally analyzed on the basis of the data obtained. A selective inhibitor (ketoconazole for CYP3A4-M) may be used as positive control. All samples were tested in duplicate.
A general note: Microsomes from liver hold many membrane-bound enzymes, among them those of drug oxidation.

Series [2] has as its target T2, CYP1A2 (Homo sapiens, UniProt P05177).
T2 construct: co-incubated at 7 concentrations with human liver microsomes and five probe substrates; tissue Corning (USA); host or cells: mixed (pooled) human liver microsomes
T2 sequence (P05177 1-516): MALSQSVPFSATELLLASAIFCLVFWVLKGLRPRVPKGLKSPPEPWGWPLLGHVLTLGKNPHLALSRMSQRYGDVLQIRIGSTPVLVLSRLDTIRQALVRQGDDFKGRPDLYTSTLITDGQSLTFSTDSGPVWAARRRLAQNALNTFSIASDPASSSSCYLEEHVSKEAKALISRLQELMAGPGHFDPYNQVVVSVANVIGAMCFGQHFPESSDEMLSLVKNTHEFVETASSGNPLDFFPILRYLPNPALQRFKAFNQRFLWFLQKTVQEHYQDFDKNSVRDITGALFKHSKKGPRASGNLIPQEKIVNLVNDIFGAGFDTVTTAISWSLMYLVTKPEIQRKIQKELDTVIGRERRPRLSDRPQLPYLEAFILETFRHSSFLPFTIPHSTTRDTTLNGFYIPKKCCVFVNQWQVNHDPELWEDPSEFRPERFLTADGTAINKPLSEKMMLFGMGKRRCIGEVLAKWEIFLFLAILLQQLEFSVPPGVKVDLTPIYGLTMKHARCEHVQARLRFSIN
Nature of the series: CYP450 inhibition in human liver microsomes, CYP1A2. Particulars: pooled (mixed) human liver microsomes, probe phenacetin. As for the experimental part: as §1

The nature of series [3]: Plasma protein binding (PPB), equilibrium dialysis, mouse plasma. To be noted: 5 h at 37° C., read-out: Plasma protein binding (Bound %) Mouse (converted). As for the experimental part: The experiment is intended to determine plasma protein binding (PPB) data of the test compounds disclosed herein.
In the PPB experiment, the final administration matrix contained the test compound or a reference compound with a concentration of 1 μM and DMSO with a content of 0.2%.
Collecting samples in initial time: 25 μL of the matrix containing the compound was added into a blank 96-well collecting plate, and the plate was stored at −20° C.
An equilibrated dialysis device was prepared. 100 μL of buffer was added to the receiving side of the equilibrium dialysis plate. Then 100 μL of the administration matrix containing the compound or the reference compound was added into an administration side of the equilibrium dialysis plate. The prepared equilibrium dialysis plate was placed in a 37° C. shaker to be shaken for 5 h at 60 rpm.
Sample was prepared at the end of cultivation (5 h): Preparing sample in the receiving side: 25 μL of sample from a receiving side was taken out and placed in a 96-well sample collecting plate, and 25 μL of a corresponding matrix (blank plasma) was added for mixing: 200 μL of ACN containing an internal standard was added, shaken for 10 minutes at 600 rpm, and centrifuged at 5594 g for 15 min.
Preparing sample in the administration side: 25 μL of the sample containing test compound and reference compound from the administration side was taken out and 25 μL of a blank buffer was added for mixing; 200 μL of ACN containing an internal standard was added, shaken for 10 minutes at 600 rpm, and centrifuged at 5594 g for 15 min.
Preparing sample in initial time: the sample containing test compound and reference compound was re-melted at 37° C. in initial time and then mixed with the corresponding matrix (blank buffer) in the same volume (25 μL); 200 μL of ACN containing an internal standard was added, shaken for 10 minutes at 600 rpm, and centrifuged at 5594 g for 15 min.
After all the samples were centrifuged, 50 μL of a supernatant was taken and added into 50 μL of ultrapure water for mixing, and the samples were sent to liquid chromatography-mass spectrometry.

Series [4] concerns the target T3, CYP3A4 (Homo sapiens, UniProt P08684).
T3 construct: The test compounds were co-incubated with the human liver microsomes and a probe substrate midazolam (CYP3A4); tissue Corning (USA); host or cells: mixed (pooled) human liver microsomes
Nature of the series: Time-dependent inhibition (TDI) of CYP3A4 in human liver microsomes. Particulars: probe substrate midazolam. Here is the method: This study was intended to investigate the time-dependent inhibition effect of the compounds on CYP3A4 in human P450 superfamily. The mixed human liver microsomes used in this assay were purchased from Corning (USA).
The test compounds were co-incubated with the human liver microsomes and a probe substrate midazolam (CYP3A4), and the concentration of the test compounds was set at 30 μM. The reaction was initiated by adding coenzyme NADPH, and terminated by adding acetonitrile dossolved with internal standard in advance. After the proteins were precipitated, the supernatant was centrifuged. The characteristic metabolite 1-hydroxy-midazolam (CYP3A4) in the supernatant was analyzed by LC-MS/MS. The influence of the test compounds on production of the characteristic metabolites was finally analyzed on the basis of the data obtained. A selective inhibitor (verapamil for CYP3A4-M) was used as positive control.

T3 sequence (P08684 whole entry): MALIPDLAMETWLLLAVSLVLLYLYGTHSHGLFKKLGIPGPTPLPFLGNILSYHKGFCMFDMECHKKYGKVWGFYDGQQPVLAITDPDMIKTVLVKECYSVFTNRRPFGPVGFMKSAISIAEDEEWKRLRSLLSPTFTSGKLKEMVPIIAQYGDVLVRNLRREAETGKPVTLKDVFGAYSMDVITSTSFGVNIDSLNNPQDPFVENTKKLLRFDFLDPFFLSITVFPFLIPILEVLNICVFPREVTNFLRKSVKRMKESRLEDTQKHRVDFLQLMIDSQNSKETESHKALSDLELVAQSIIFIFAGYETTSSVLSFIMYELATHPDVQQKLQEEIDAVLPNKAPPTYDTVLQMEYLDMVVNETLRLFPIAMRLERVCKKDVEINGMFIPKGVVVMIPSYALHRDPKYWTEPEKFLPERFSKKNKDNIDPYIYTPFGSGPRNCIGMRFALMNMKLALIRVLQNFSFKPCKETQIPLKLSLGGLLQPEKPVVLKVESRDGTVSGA

On to `COc1cc2nn([C@H]3CC[C@](C)(O)CC3)cc2cc1NC(=O)c1cccc(C)[n+]1[O-]` [Compound 001, 2-((2-((1r,4r)-4-hydroxy-4-methylcyclohexyl)-6-methoxy-2H-indazol-5-yl)carbamoyl)-6-methylpyridine 1-oxide], for which the negative-log IC50 (pIC50) in series [1] and in series [2] was less than 4.52 each time. Moreover, in series [3], the fraction unbound at 5 h, 1 μM is 0.201. In addition, the “TDI (3A4, 30 μM)” value in series [4] is reported as −3.68%.

Take `COc1cc2nn(CCC(C)(C)O)cc2cc1NC(=O)c1cccc(C)[n+]1[O-]` [Compound 163, 2-((2-(3-hydroxy-3-methylbutyl)-6-methoxy-2H-indazol-5-yl)carbamoyl)-6-methylpyridine 1-oxide]: the negative logarithm of the IC50 (pIC50) in series [1] and in series [2] was less than 4.52 throughout. The fraction unbound at 5 h, 1 μM in series [3] was 0.162.
